Test results reported in patent publication US20230203043A1, “NOVEL IMIDAZOPYRAZINE DERIVATIVES” (Hoffmann-La Roche Inc., priority 2020, published 2023).
Counter-ions that a name gives are not always drawn.

tested on: Acinetobacter baumannii ATCC17961; assay: Antimicrobial susceptibility testing: 90% growth inhibitory concentration (IC90) determination in Iso-Sensitest broth, OD600 growth; format: cell-based; conditions: Acinetobacter baumannii, ATCC17961, 16 h, read-out: A. baumannii ATCC 17961 IC90 (uM), strain ATCC 17961, OD600 growth over 16 h
Procedure, shortened: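 Twofold compound dilutions (e.g. 50 to 0.097 μM final) in Iso-Sensitest broth with ~5×10^(5) CFU/ml, 35±2 °C. OD600 read every 20 min over 16 h; IC90 from growth inhibition during logarithmic phase.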

Compound	IC90 [µM]
CCc1cc(Nc2nccn3c(-c4cn(C(C)C#N)nc4C(F)(F)F)cnc23)ccc1C(=O)NCCOCCCN (stereo not drawn) [Example 639, N-(2-(3-aminopropoxy)ethyl)-4-((3-(1-(1-cyanoethyl)-3-(trifluoromethyl)-1H-pyrazol-4-yl)imidazo[1,2-a]pyrazin-8-yl)amino)-2-ethylbenzamide formate]	0.228
O=C(N[C@@H]1CNC[C@H]1O)N1CCN(C(=O)c2ccc(Nc3nccn4c(-c5c[nH]nc5C(F)(F)F)cnc34)cc2Cl)CC1 [Example 441, 4-[2-chloro-4-[[3-[3-(trifluoromethyl)-1H-pyrazol-4-yl]imidazo[1,2-a]pyrazin-8-yl]amino]benzoyl]-N-[(3R,4R)-4-hydroxypyrrolidin-3-yl]piperazine-1-carboxamide formate]	0.617
CNC(=O)c1ccc(Nc2nccn3c(-c4cn(CCCc5ccc(CN)cc5)nc4C(F)(F)F)cnc23)cc1Cl [Example 594, 4-((3-(1-(3-(4-(aminomethyl)phenyl)propyl)-3-(trifluoromethyl)-1H-pyrazol-4-yl)imidazo[1,2-a]pyrazin-8-yl)amino)-2-chloro-N-methylbenzamide formate]	0.164
CCc1cc(Nc2nccn3c(-c4cn(CC(F)F)nc4C(F)(F)F)cnc23)ccc1C(=O)NCC(=O)N1CCNC(C)C1 (stereo not drawn) [Example 545, 4-[[3-[1-(2,2-difluoroethyl)-3-(trifluoromethyl)pyrazol-4-yl]imidazo[1,2-a]pyrazin-8-yl]amino]-2-ethyl-N-[2-(3-methylpiperazin-1-yl)-2-oxo-ethyl]benzamide formate]	0.306
Cc1cc(Nc2nccn3c(-c4cn(CC#N)nc4C(F)(F)F)cnc23)ccc1C(=O)N1CCN(C(=O)[C@@H]2C[C@@H](O)CN2)CC1 [Example 422, formic acid; 2-[4-[8-[4-[4-[(2S,4R)-4-hydroxypyrrolidine-2-carbonyl]piperazine-1-carbonyl]-3-methylanilino]imidazo[1,2-a]pyrazin-3-yl]-3-(trifluoromethyl)pyrazol-1-yl]acetonitrile]	0.63
O=C(c1ccc(Nc2nccn3c(-c4c[nH]nc4C(F)(F)F)cnc23)cc1Cl)N1CCN(C(=O)[C@@H]2C[C@@H](O)CN2)CC1 [Example 448, [2-chloro-4-[[3-[3-(trifluoromethyl)-1H-pyrazol-4-yl]imidazo[1,2-a]pyrazin-8-yl]amino]phenyl]-[4-[(2S,4R)-4-hydroxypyrrolidine-2-carbonyl]piperazin-1-yl]methanone formate]	0.235
C[C@@]1(O)CN[C@H](C(=O)N2CCN(C(=O)c3ccc(Nc4nccn5c(-c6c[nH]nc6C(F)(F)F)cnc45)cc3Cl)CC2)C1 [Example 443, [2-chloro-4-[[3-[3-(trifluoromethyl)-1H-pyrazol-4-yl]imidazo[1,2-a]pyrazin-8-yl]amino]phenyl]-[4-[(2S,4S)-4-hydroxy-4-methylpyrrolidine-2-carbonyl]piperazin-1-yl]methanone formate]	0.81
CCc1cc(Nc2nccn3c(-c4cn(CC#N)nc4C(F)(F)F)cnc23)ccc1C(=O)NCC(=O)N1CCC(CN)C1 (stereo not drawn) [Example 509, N-[2-[3-(aminomethyl)pyrrolidin-1-yl]-2-oxo-ethyl]-4-[[3-[1-(cyanomethyl)-3-(trifluoromethyl)pyrazol-4-yl]imidazo[1,2-a]pyrazin-8-yl]amino]-2-ethyl-benzamide formate]	0.23
COc1ccc(Cn2cc(-c3cnc4c(Nc5ccc(C(=O)N6CCNCC6)c(Cl)c5)nccn34)c(C(F)(F)F)n2)nn1 [Example 159, [2-chloro-4-[[3-[1-[(6-methoxypyridazin-3-yl)methyl]-3-(trifluoromethyl)pyrazol-4-yl]imidazo[1,2-a]pyrazin-8-yl]amino]phenyl]-piperazin-1-ylmethanone formate]	0.408
CCc1cc(Nc2nccn3c(-c4cn(CCN(C)C)nc4C(F)(F)F)cnc23)ccc1C(=O)NCCOCCN [Example 309, N-[2-(2-aminoethoxy)ethyl]-4-[[3-[1-[2-(dimethylamino)ethyl]-3-(trifluoromethyl)pyrazol-4-yl]imidazo[1,2-a]pyrazin-8-yl]amino]-2-ethylbenzamide formate]	0.618
Cc1cc(Nc2nccn3c(-c4cn(CC#N)nc4C(F)(F)F)cnc23)ccc1C(=O)N1CCN(C(=O)[C@@H]2CCNC[C@H]2O)CC1 [Example 380, formic acid; 2-[4-[8-[4-[4-[(3S,4R)-3-hydroxypiperidine-4-carbonyl]piperazine-1-carbonyl]-3-methylanilino]imidazo[1,2-a]pyrazin-3-yl]-3-(trifluoromethyl)pyrazol-1-yl]acetonitrile]	0.623

same assay, conditions: Acinetobacter baumannii, ATCC17961, 16 h, strain ATCC 17961, OD600 growth over 16 h, read-out: A. baumannii ATCC 17961 IC90

Compound	IC90 [µM]
C#CCn1cc(-c2cnc3c(Nc4cc(C)c(C(=O)N[C@H](C)CN)c(F)c4)nccn23)c(C(F)(F)F)n1 [Example 662, (R)-N-(1-aminopropan-2-yl)-2-fluoro-6-methyl-4-((3-(1-(prop-2-yn-1-yl)-3-(trifluoromethyl)-1H-pyrazol-4-yl)imidazo [1,2-a]pyrazin-8-yl)amino)benzamide]	0.284
C#CCn1cc(-c2cnc3c(Nc4ccc(C(=O)N5CCC(CN)CC5)c(CC)c4)nccn23)c(C(F)(F)F)n1 [Example 46, [4-(aminomethyl)piperidin-1-yl]-[2-ethyl-4-[[3-[1-prop-2-ynyl-3-(trifluoromethyl)pyrazol-4-yl]imidazo[1,2-a]pyrazin-8-yl]amino]phenyl] methanone]	0.093
CCc1cc(Nc2nccn3c(-c4cn(CC(F)F)nc4C(F)(F)F)cnc23)ccc1C(=O)NCC(=O)NCC1CCNC1 (stereo not drawn) [Example 549, 4-[[3-[1-(2,2-difluoroethyl)-3-(trifluoromethyl)pyrazol-4-yl]imidazo[1,2-a]pyrazin-8-yl]amino]-2-ethyl-N-[2-oxo-2-(pyrrolidin-3-ylmethylamino)ethyl] benzamide formate]	0.235
N#CCn1cc(-c2cnc3c(Nc4ccc(C(=O)NCCNCC(=O)N[C@H]5CCNC5)c(Cl)c4)nccn23)c(C(F)(F)F)n1 [Example 817, (S)-2-chloro-4-((3-(1-(cyanomethyl)-3-(trifluoromethyl)-1H-pyrazol-4-yl)imidazo[1,2-a]pyrazin-8-yl)amino)-N-(2-((2-oxo-2-(pyrrolidin-3-ylamino)ethyl)amino)ethyl) benzamide formate]	0.18
NCC(=O)N1CC2(C1)CN(C(=O)c1ccc(Nc3nccn4c(-c5cn(CC(F)F)nc5C(F)(F)F)cnc34)cc1Cl)C2 [Example 651, 2-amino-1-(6-(2-chloro-4-((3-(1-(2,2-difluoroethyl)-3-(trifluoromethyl)-1H-pyrazol-4-yl)imidazo[1,2-a]pyrazin-8-yl)amino)benzoyl)-2,6-diazaspiro[3.3]heptan-2-yl)ethan-1-one]	0.254
C#CC(C)n1cc(-c2cnc3c(Nc4ccc(C(=O)N5CCN(C(=O)[C@H]6C[C@H](O)CN6)CC5)c(CC)c4)nccn23)c(C(F)F)n1 (stereo in doubt) [Example 787, (4-(4-((3-(1-(but-3-yn-2-yl)-3-(difluoromethyl)-1H-pyrazol-4-yl)imidazo[1,2-a]pyrazin-8-yl)amino)-2-ethylbenzoyl)piperazin-1-yl)((2R,4S)-4-hydroxypyrrolidin-2-yl)methanone (mixture of epimers)]	1.57
Cc1cc(Nc2nccn3c(-c4c[nH]nc4C(F)(F)F)cnc23)ccc1C(=O)N1CCNCC1 [Example 480, [2-methyl-4-[[3-[3-(trifluoromethyl)-1H-pyrazol-4-yl]imidazo[1,2-a]pyrazin-8-yl]amino]phenyl]-piperazin-1-ylmethanone]	1.84
Cc1cc(Nc2nccn3c(-c4cn(CC5CC5)nc4C(F)(F)F)cnc23)ccc1S(C)(=O)=NCCCN (stereo not drawn) [Example 596, N-[4-[N-(3-aminopropyl)-S-methyl-sulfonimidoyl]-3-methyl-phenyl]-3-[1-(cyclopropylmethyl)-3-(trifluoromethyl)pyrazol-4-yl]imidazo[1,2-α]pyrazin-8-amine formate]	0.131
C#CCNC(=O)c1c(C)cc(Nc2nccn3c(-c4cn(CC=C)nc4C(F)(F)F)cnc23)cc1F [Example 41, 2-fluoro-6-methyl-4-[[3-[1-prop-2-enyl-3-(trifluoromethyl)pyrazol-4-yl]imidazo[1,2-a]pyrazin-8-yl]amino]-N-prop-2-ynylbenzamide]	0.254
N#CCn1cc(-c2cnc3c(Nc4ccc(C(=O)NCC(=O)N5CCNCC5)c(Cl)c4)nccn23)c(C(F)(F)F)n1 [Example 501, 2-chloro-4-[[3-[1-(cyanomethyl)-3-(trifluoromethyl)pyrazol-4-yl]imidazo[1,2-a]pyrazin-8-yl]amino]-N-(2-oxo-2-piperazin-1-yl-ethyl)benzamide formate]	0.224
Cc1cc(Nc2nccn3c(-c4cn(CCF)nc4C(F)(F)F)cnc23)cc(F)c1C(=O)N[C@H](C)CN [Example 735, (R)-N-(1-aminopropan-2-yl)-2-fluoro-4-((3-(1-(2-fluoroethyl)-3-(trifluoromethyl)-1H-pyrazol-4-yl)imidazo[1,2-a]pyrazin-8-yl)amino)-6-methylbenzamide]	0.49

same assay, conditions: strain ATCC 17961, OD600 growth over 16 h, read-out: A. baumannii ATCC 17961 IC90

Compound	IC90 [µM]
4-[[3-[1-(2-cyanomethyl)-3-(trifluoromethyl)pyrazol-4-yl]imidazo[1,2-a]pyrazin-8-yl]amino]-2-ethyl-N-methylbenzamide [Example 337]	0.359
NC1CCC(NC(=O)N2CCN(C(=O)c3ccc(Nc4nccn5c(-c6c[nH]nc6C(F)(F)F)cnc45)cc3Cl)CC2)CC1 (stereo not drawn) [Example 287, N-(4-aminocyclohexyl)-4-[2-chloro-4-[[3-[3-(trifluoromethyl)-1H-pyrazol-4-yl]imidazo[1,2-a]pyrazin-8-yl]amino]benzoyl] piperazine-1-carboxamide formate]	0.23
